Measured values from article PMC6815936, “A Pan-Cyclophilin Inhibitor, CRV431, Decreases Fibrosis and Tumor Development in Chronic Liver Disease Models” (The Journal of Pharmacology and Experimental Therapeutics, 2019).
Like-named read-outs stand apart in the source and are kept apart here. Square brackets hold non-standard residues; d marks the D form. Peptide text beside a SMILES is read from it. NMeThr(4R-Me,4-(CH2)6NHAc) = CN[C@H](C(=O)O)[C@H](O)[C@H](C)CCCCCCNC(C)=O; NMeL = CN[C@@H](CC(C)C)C(=O)O; NMeV = CN[C@H](C(=O)O)C(C)C; dNMeA = CN[C@H](C)C(=O)O; Abu = CC[C@H](N)C(=O)O

Experiments:
[1] = CRV431 concentrations in blood and liver, rats; assay type: in vivo; conditions: Rat
Text: Male and female Sprague–Dawley rats and male C57BL/6 mice from the carbon tetrachloride and NASH studies were used to evaluate CRV431 pharmacokinetics and distribution. […] Terminal whole blood and livers were collected and frozen until drug extraction. Liver samples were homogenized in PBS or 1% formic acid (0.1 g–0.4 g liver sample per ml solvent) with bead-based homogenizers (TissueLyser or Beadruptor). […] Liver CRV431 concentrations were normalized to the masses of the liver samples.

[2] = rat, in vivo, po
Text: (§2) Male and female Sprague–Dawley rats and male C57BL/6 mice from the carbon tetrachloride and NASH studies were used to evaluate CRV431 pharmacokinetics and distribution. […] Terminal whole blood and livers were collected and frozen until drug extraction. Liver samples were homogenized in PBS or 1% formic acid (0.1 g–0.4 g liver sample per ml solvent) with bead-based homogenizers (TissueLyser or Beadruptor). […] Sample and standard compounds were extracted from blood and liver homogenates using a zinc sulfate/methanol precipitation method and quantified by liquid chromatography–electrospray ionization–mass spectrometry, as previously described ([Trepanier et al., 2018]). Liver CRV431 concentrations were normalized to the masses of the liver samples.
(§3) CRV431 pharmacokinetics in rats. […] Whole–blood concentrations of the two compounds were determined at the indicated time points. […] Means and S.D. shown.

[3] = tested on: CCl4-induced liver fibrosis in C57BL/6 mice; experiment: Carbon tetrachloride mouse model of liver fibrosis; assay type: in vivo; conditions: 50 mg/kg per day oral for 6 weeks, vs vehicle
Procedure: Carbon tetrachloride (CCl4)–induced liver fibrosis was conducted in C57BL/6J male mice starting at 7 weeks of age. Mice were injected intraperitoneally twice per week with 0.5–0.75 ml/kg CCL4 (289116; Sigma-Aldrich) and corn oil (0.05 ml total dose per mouse) for 6 weeks. CRV431, obeticholic acid (OCA, HY-12222; MedChemExpress), and vehicle were administered by daily oral gavage for the entire duration of the study. CRV431 and OCA were dissolved in a self-microemulsifying drug vehicle ([Trepanier et al., 2018]), and then diluted with PBS. CRV431 was administered at 50 mg/kg per day, and OCA was administered at 10 mg/kg per day.
Blood and livers were collected at the end of the NASH and CCl4 studies. In some studies, serum or plasma was isolated from freshly-collected blood, whereas in other studies blood was frozen for later analysis of CRV431 concentration. Livers were immersion-fixed in zinc-formalin and paraffin-embedded for histologic processing. Liver sections were stained with hematoxylin and eosin for assessment of inflammation, ballooning, and steatosis, and with sirius red for assessment of collagen I and III (fibrosis). Sirius red staining was quantified by blinded analysis in one section per liver using ImageJ software. […]

[4] = target: T1, recombinant cyclophilin G (PPIG) (Homo sapiens, UniProt Q13427); experiment: Cyclophilin isomerase assay, cyclophilin G; assay type: biochemical
T1 construct: purchased Cedarlane Laboratories CLENZ463
Procedure: (§1) Cyclophilin isomerase activity was measured with an assay described by [Kofron et al. (1991)] with adaptations to 96-well plates. In this assay cyclophilins catalyze cis-to-trans isomerization of a proline peptide bond in a nitroanalide-coupled peptide substrate followed by cleavage of the trans-conformer peptide by α-chymotrypsin, release of the p-nitroaniline chromogen, and quantitation of p-nitroaniline by absorbance at 410 nm. All solutions were pre-equilibrated, and all assays were conducted at 4°C. Plates were preloaded with 5 µl peptide solution consisting of N-succinyl-alanine-alanine-proline-phenylalanine-p-nitroanilide (S7388; Sigma-Aldrich) and 400 mM lithium chloride (310468; Sigma-Aldrich) in anhydrous trifluoroethanol (T63002; Sigma-Aldrich). […] Absorbance measurements with a BMG Polarstar Galaxy plate reader were begun immediately and made at 6-second intervals for 6 minutes. Reaction curves were represented by increases in optical density 410 nm as a function of reaction time. For Ki determinations, initial reaction velocities were obtained from the reaction curves and plotted relative to substrate concentration, and the curves were fitted to the enzyme competitive inhibition model (GraphPad Prism) to derive Ki, maximum velocity (Vmax), and Michaelis constant values. […]

recombinant Cyp B (PPIB) = target: T2, recombinant Cyp B (PPIB) (Homo sapiens, UniProt P23284); experiment: Cyclophilin isomerase assay, Cyp B; assay type: biochemical
T2 construct: purchased Cedarlane Laboratories CLENZ313
Procedure: as §1

MRP2 [5] = target: T3, MRP2 (Homo sapiens, UniProt Q92887); experiment: Drug transporter inhibition, MRP2; conditions: MRP2, Vesicles
Procedure: (§4) Bile salt export pump (BSEP) and multidrug resistance protein (MRP)1 inhibition was assessed by measuring substrate accumulation in membrane vesicles prepared from insect Sf9 cells and recombinantly expressing BSEP and MRP2 (Genomembrane). Inhibition of all other transporters was assessed by measuring substrate accumulation in cells recombinantly expressing the transporter. Known inhibitors of each transporter were used as positive controls for the assays. […] Specific, ATP-dependent uptake was determined by subtracting uptake in negative control vesicles and cells not expressing the transporters, and secondly by subtracting uptake in the absence of ATP in the assays. Specific, ATP-dependent uptake was plotted as a function of CRV431 concentrations and fitted to nonlinear regressions to obtain IC50 values.

[6] = Single oral dose pharmacokinetics in rats; conditions: single oral dose 10 mg/kg
Text: as §2, §3

MRP2 [7] = target: T3, MRP2
Procedure: as §4

[8] = tested on: Jurkat activation (NFAT and IL-2 luciferase reporters); experiment: Jurkat NFAT and IL-2 luciferase reporter assays taken together; assay type: cell-based, human
Procedure: The luciferase reporter assays employed Jurkat cells stably transfected with gene constructs consisting of a luciferase gene plus human nuclear factor of activated T cells (NFAT) or interleukin-2 (IL-2) promoter elements (J1621 and J1651; Promega). The NFAT construct contained a DNA binding site only for NFAT, whereas the IL-2 construct contained binding sites for NFAT, nuclear factor κ-light-chain-enhancer of activated B cells, and activating protein-1 transcription factors. Cells were cultured in 96-well plates at 100,000 cells/well in RPMI 1640 medium (11875-093; Thermo Fisher) supplemented with 5% FBS (12483020; Thermo Fisher). Cells were activated either by precoating high protein-binding plates with 3 µg/ml anti-CD3 (UCHT clone) and anti-CD28 (CD28.2 clone) (BioLegend LEAF antibodies) or by adding phorbol myristate acetate (PMA; P8139; Sigma-Aldrich) to 15 ng/ml and A23187 ionophore (C7522; Sigma-Aldrich) to 0.75 µM. […] Cells were harvested after 18 hours of incubation, and luciferase was quantified with Promega Bio-Glo reagent (G7940; Promega) and measurement with a luminescence plate reader. Data were normalized to DMSO controls (100% stimulation) and to wells without antibody or PMA plus A23187 stimulation.

MATE-2 = target: T4, MATE-2 (Homo sapiens, UniProt Q86VL8); experiment: Drug transporter inhibition, MATE-2; assay type: in vitro ADME; conditions: MATE-2, HEK293
T4 construct: expressed in transfected cells
Procedure: Inhibition of all other transporters was assessed by measuring substrate accumulation in cells recombinantly expressing the transporter. Known inhibitors of each transporter were used as positive controls for the assays. […] Specific, ATP-dependent uptake was determined by subtracting uptake in negative control vesicles and cells not expressing the transporters, and secondly by subtracting uptake in the absence of ATP in the assays. Specific, ATP-dependent uptake was plotted as a function of CRV431 concentrations and fitted to nonlinear regressions to obtain IC50 values.

BSEP [9] = target: T5, BSEP (Homo sapiens, UniProt O95342); experiment: Drug transporter inhibition, BSEP; conditions: Vesicles
Procedure: as §4

BSEP [10] = target: T5, BSEP
Procedure: as §4

OATP1B1 = OATP1B1 (Homo sapiens, UniProt Q9Y6L6)
Sequence of OATP1B1 (Q9Y6L6 whole entry): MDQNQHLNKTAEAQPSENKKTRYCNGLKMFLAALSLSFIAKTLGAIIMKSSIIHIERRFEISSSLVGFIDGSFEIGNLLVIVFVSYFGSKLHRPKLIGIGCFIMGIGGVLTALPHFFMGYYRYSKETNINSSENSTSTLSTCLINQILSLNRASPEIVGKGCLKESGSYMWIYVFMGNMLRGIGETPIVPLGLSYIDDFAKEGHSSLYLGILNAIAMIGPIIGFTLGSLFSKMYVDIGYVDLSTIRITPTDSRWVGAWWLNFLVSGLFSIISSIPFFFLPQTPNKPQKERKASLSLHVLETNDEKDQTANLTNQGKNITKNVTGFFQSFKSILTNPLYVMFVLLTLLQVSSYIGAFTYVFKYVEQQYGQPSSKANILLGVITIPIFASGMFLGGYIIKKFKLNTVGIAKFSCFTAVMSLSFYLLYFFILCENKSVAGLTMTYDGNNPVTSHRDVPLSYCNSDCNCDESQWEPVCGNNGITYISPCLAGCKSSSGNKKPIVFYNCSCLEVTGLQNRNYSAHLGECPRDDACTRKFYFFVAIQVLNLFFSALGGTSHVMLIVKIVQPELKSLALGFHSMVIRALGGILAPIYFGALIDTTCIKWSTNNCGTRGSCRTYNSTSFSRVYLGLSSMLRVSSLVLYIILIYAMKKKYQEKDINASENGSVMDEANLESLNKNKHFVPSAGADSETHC
Procedure: Briefly, PGP and breast cancer resistance protein inhibition was assessed by measuring the bidirectional transport of substrates across cell monolayers in transwell culture plates. Efflux ratios were represented as (apical-to-basal flux)/(basal-to-apical flux), and efflux ratios were plotted relative to CRV431 concentration to derive IC50 values. Bile salt export pump (BSEP) and multidrug resistance protein (MRP)1 inhibition was assessed by measuring substrate accumulation in membrane vesicles prepared from insect Sf9 cells and recombinantly expressing BSEP and MRP2 (Genomembrane). Inhibition of all other transporters was assessed by measuring substrate accumulation in cells recombinantly expressing the transporter. Known inhibitors of each transporter were used as positive controls for the assays. […] Specific, ATP-dependent uptake was determined by subtracting uptake in negative control vesicles and cells not expressing the transporters, and secondly by subtracting uptake in the absence of ATP in the assays. Specific, ATP-dependent uptake was plotted as a function of CRV431 concentrations and fitted to nonlinear regressions to obtain IC50 values.

T2 sequence (P23284 34-216): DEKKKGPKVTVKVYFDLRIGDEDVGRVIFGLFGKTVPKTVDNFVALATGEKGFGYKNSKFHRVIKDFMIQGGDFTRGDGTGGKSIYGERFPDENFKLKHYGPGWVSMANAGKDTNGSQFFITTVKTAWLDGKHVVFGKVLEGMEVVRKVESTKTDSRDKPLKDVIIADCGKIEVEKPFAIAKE
T5 sequence (O95342 whole entry): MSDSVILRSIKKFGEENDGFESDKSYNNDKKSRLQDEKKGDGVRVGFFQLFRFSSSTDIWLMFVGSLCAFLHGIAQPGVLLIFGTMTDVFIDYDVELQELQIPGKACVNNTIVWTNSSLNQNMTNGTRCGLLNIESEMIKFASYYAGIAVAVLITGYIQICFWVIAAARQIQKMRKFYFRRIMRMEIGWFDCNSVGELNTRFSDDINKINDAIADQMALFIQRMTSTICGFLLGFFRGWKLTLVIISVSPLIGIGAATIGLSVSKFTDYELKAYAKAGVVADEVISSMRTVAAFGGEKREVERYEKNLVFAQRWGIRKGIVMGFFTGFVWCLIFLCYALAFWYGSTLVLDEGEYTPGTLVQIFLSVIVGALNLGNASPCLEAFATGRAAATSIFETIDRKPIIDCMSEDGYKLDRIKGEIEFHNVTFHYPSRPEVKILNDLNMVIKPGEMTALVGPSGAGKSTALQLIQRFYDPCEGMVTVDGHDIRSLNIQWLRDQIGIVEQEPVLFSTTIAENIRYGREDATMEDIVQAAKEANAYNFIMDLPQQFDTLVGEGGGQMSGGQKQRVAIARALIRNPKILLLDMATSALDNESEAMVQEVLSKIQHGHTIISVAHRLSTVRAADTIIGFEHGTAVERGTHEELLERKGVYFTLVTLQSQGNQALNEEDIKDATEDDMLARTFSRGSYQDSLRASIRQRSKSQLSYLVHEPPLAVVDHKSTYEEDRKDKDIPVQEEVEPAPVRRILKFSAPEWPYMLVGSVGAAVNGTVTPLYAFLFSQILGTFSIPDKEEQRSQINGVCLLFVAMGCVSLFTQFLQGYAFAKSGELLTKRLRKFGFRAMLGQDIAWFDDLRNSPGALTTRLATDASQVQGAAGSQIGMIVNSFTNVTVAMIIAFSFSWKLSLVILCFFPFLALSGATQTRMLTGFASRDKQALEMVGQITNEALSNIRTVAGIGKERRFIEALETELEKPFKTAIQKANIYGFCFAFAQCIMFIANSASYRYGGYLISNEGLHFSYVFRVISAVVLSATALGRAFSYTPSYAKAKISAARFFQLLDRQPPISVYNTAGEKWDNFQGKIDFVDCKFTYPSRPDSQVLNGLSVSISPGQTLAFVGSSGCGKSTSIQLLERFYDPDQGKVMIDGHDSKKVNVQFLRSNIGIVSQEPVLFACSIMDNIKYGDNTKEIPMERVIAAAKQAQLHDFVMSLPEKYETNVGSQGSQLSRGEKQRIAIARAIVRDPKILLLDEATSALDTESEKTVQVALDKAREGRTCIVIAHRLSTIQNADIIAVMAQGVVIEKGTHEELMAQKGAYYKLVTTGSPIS
T1 sequence (Q13427 whole entry): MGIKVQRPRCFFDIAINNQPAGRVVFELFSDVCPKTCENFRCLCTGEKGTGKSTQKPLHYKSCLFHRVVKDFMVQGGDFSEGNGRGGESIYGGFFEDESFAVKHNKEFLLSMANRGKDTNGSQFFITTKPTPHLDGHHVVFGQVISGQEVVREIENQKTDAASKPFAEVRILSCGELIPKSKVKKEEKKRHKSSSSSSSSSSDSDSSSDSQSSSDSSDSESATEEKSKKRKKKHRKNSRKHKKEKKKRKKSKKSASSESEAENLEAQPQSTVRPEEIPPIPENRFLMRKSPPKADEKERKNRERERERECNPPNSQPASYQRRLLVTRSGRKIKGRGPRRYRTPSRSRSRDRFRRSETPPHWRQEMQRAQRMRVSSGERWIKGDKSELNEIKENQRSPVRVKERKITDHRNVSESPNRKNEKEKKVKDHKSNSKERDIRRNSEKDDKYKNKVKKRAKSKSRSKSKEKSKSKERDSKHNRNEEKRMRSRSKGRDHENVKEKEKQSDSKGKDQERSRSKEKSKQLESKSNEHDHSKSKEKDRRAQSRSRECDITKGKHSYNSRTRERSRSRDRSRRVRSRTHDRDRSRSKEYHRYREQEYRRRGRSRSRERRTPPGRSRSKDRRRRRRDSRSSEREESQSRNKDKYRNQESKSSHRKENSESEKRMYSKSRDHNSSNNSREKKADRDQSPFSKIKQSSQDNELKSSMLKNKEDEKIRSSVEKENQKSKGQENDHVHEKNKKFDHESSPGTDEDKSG
T3 sequence (Q92887 whole entry): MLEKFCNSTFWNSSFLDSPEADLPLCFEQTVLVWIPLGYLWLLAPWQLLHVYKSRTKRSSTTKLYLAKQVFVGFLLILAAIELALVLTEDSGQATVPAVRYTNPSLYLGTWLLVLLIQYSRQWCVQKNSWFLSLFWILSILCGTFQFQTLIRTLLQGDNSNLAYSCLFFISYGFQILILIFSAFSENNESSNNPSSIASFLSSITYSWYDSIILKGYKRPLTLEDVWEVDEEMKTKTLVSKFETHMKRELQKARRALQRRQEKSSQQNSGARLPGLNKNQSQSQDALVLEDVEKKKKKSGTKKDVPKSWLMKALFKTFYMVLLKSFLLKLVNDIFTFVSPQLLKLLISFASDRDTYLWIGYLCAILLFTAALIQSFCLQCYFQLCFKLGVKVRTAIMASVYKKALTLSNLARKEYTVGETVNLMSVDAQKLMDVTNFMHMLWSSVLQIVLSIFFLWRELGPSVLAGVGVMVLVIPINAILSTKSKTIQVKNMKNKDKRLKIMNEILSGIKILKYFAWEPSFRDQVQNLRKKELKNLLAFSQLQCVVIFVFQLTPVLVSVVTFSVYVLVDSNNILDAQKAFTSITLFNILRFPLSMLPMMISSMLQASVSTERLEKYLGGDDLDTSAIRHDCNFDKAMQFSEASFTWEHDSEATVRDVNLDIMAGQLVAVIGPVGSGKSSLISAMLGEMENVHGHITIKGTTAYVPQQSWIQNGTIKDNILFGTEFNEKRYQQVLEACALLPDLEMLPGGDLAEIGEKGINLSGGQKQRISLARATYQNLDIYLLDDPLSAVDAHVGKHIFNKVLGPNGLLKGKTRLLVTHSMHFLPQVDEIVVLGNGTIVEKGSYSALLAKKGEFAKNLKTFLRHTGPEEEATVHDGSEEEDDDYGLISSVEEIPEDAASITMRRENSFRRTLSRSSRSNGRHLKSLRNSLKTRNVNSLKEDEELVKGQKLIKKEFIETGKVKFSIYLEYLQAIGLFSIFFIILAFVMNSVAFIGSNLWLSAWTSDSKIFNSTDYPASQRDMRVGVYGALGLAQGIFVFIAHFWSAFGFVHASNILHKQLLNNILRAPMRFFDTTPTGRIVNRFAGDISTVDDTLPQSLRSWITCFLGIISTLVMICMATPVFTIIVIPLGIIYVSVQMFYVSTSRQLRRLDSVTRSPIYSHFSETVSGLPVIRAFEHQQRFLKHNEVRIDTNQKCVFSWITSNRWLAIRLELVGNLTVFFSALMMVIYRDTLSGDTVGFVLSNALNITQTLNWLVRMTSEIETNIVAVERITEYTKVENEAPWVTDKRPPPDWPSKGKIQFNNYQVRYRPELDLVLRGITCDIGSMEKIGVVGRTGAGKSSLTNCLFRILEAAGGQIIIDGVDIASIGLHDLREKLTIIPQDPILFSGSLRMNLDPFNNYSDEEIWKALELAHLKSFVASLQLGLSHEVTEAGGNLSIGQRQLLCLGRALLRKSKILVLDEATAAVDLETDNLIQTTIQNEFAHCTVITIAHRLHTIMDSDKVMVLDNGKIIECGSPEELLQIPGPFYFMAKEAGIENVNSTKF
T4 sequence (Q86VL8 whole entry): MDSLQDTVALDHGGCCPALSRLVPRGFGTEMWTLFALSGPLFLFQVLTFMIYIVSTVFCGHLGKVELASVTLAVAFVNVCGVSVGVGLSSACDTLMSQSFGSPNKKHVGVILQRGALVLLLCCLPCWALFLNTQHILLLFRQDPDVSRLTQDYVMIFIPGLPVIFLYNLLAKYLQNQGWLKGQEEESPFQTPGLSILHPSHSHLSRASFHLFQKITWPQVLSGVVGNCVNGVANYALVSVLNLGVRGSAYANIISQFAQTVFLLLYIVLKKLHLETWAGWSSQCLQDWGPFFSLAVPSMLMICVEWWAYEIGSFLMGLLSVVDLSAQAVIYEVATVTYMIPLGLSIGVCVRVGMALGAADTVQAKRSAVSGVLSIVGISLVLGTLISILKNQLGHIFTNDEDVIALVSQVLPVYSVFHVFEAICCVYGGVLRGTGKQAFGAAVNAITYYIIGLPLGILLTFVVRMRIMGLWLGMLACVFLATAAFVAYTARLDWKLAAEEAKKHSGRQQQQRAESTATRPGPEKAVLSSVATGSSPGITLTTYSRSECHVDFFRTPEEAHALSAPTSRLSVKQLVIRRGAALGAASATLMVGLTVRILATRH

CC[C@@H]1NC(=O)[C@H]([C@H](O)[C@H](C)CCCCCCNC(C)=O)N(C)C(=O)[C@H](C(C)C)N(C)C(=O)[C@H](CC(C)C)N(C)C(=O)[C@H](CC(C)C)N(C)C(=O)[C@@H](C)NC(=O)[C@H](C)NC(=O)[C@H](CC(C)C)N(C)C(=O)[C@H](C(C)C)NC(=O)[C@H](CC(C)C)N(C)C(=O)[C@@H](C)N(C)C1=O [CRV431] (cyclo(A[dA][NMeL][NMeL][NMeV][NMeThr(4R-Me,4-(CH2)6NHAc)][Abu][dNMeA][NMeL]V[NMeL]))
Liver:Blood [CRV431] Ratio ([1]; 30 mg/kg per day oral, day 7, 12 hours post-dose): 6.6 ± 1.1 | Liver:Blood [CRV431] Ratio ([1]; 30 mg/kg per day oral, day 7, 24 hours post-dose): 4.8 ± 1.1 | Liver:Blood [CRV431] Ratio ([1]; 250 mg/kg per day oral, day 7, 12 hours post-dose): 7.6 ± 1.8 | Liver:Blood [CRV431] Ratio ([1]; 250 mg/kg per day oral, day 7, 24 hours post-dose): 5.3 ± 0.6 | half-life (in words) [2]: relatively long CRV431 half-life that exceeded that of CsA | lowering of the amount of sirius red staining [3]: 43% | IC50 Fold Difference ([4]; CsA IC50 vs CRV431 IC50, PPIG): 3.8 | IC50 ([4]; PPIG (Cyp G), one peptide substrate concentration): 7.3 nM | IC50 Fold Difference (recombinant Cyp B (PPIB); CsA IC50 vs CRV431 IC50, PPIB): 3.7 | IC50 (recombinant Cyp B (PPIB); PPIB (Cyp B), one peptide substrate concentration): 3.1 nM | CRV431 Inhibitory Potency vs. CsA (MRP2 [5]): 2.1× less | clearance fold difference, CRV431 vs CsA [6]: 3.5 fold | IC50 (MRP2 [7]): 20700 nM | suppression of Jurkat activation ([8]; CRV431 tested up to 20 µM): not able to completely suppress activation | immunosuppression potency relative to CsA levels ([8]; from the multiple in vitro immunosuppression assays): ≤ 3% | IC50 ([8]; range over both reporter lines and both stimulations, nonlinear regression, read-out: IC50 values, Jurkat activation): 205 to 311 nM | IC50 ([8]; read-out: estimates of 50% inhibition derived directly from the graphs, range over Jurkat reporter assays): 340 to 500 nM | CRV431 Inhibitory Potency vs. CsA (MATE-2): Same (no inhibition) | CRV431 Inhibitory Potency vs. CsA (BSEP [9]): 3.4× less | IC50 (BSEP [10]): 1420 nM | IC50 (OATP1B1): 300 nM
